Measurements from patent publication US8980926B2, “2-aminoindole compounds and methods for the treatment of malaria” (Genzyme Corporation, priority 2009, dated 2015).

Test system: P. falciparum strain 3D7
Test: In vitro potency against P. falciparum strain 3D7 (SYBR green/DAPI)
Type: cell-based
Conditions: Plasmodium falciparum, reductions in parasitemia, read-out: IC50 values

Question: With COc1cnc(Cl)cc1C1(O)C(N)=Nc2ccc(Cl)cc21 (centres unmarked) [Compound 221] as the compound, how does the IC50 read?
Answer: 100 to 500 nM

Question: COc1ccc(C2(O)C(N)=Nc3ccc(Cl)cc32)c(OC)c1 (centres unmarked) [Compound 86] was tested. Which IC50 did it give?
Answer: 1 to 100 nM

Question: CCOc1cc(F)c(F)cc1C1(O)C(N)=Nc2ccc(Cl)cc21 (centres unmarked) [Compound 250] was tested. Which IC50 did it give?
Answer: 1 to 100 nM

Question: How did the IC50 turn out when CCOc1cc(Cl)ccc1C1(O)C(N)=Nc2ccc(Cl)cc21 (centres unmarked) [Compound 259] was run?
Answer: 1 to 100 nM

Question: How did the IC50 turn out when NC1=Nc2ccc(Cl)cc2C1(O)c1nc2ccccc2s1 (centres unmarked) [Compound 137] was run?
Answer: 100 to 500 nM

Question: NC1=Nc2ccc(Cl)cc2C1(O)c1ccccc1N1CCCCCC1 (centres unmarked) [Compound 162] was tested. Which IC50 did it give?
Answer: 1 to 100 nM

Question: How did the IC50 turn out when NC1=Nc2ccccc2C1(O)c1cc(F)cc2ccccc12 (centres unmarked) [Compound 264] was run?
Answer: 100 to 500 nM

Question: Which IC50 does the source give for NC1=Nc2ccc(Cl)cc2C1(O)c1cc2ccccc2o1 (centres unmarked) [Compound 144] here?
Answer: 1 to 100 nM

Question: With COc1ccc(OC2CCC2)c(C2(O)C(N)=Nc3ccccc32)c1 (centres unmarked) [Compound 195] as the compound, how does the IC50 read?
Answer: 1 to 100 nM

Question: Which IC50 does the source give for CCSc1ccccc1C1(O)C(N)=Nc2ccc(Cl)cc21 (centres unmarked) [Compound 163] here?
Answer: 1 to 100 nM

Question: With NC1=Nc2ccc(Cl)cc2C1(O)c1cccc2cccnc12 (centres unmarked) [Compound 58] as the compound, how does the IC50 read?
Answer: 100 to 500 nM

Question: Which IC50 does the source give for NC1=Nc2ccc(Cl)cc2C1(O)c1cccc2ccncc12 (centres unmarked) [Compound 117] here?
Answer: 100 to 500 nM

Question: How did the IC50 turn out when CC(C)(C)Sc1ccccc1C1(O)C(N)=Nc2ccc(Cl)cc21 (centres unmarked) [Compound 193] was run?
Answer: 1 to 100 nM

Question: How did the IC50 turn out when CC1(O)C(N)=Nc2ccccc21 (centres unmarked) [Compound 9] was run?
Answer: 1000 to 5000 nM

Question: For NC1=Nc2ccc(Cl)cc2C1(O)c1cccc2nsnc12 (centres unmarked) [Compound 94], which IC50 is on record?
Answer: 1000 to 5000 nM

Question: With COc1cc(C2(O)C(N)=Nc3ccc(Cl)cc32)c(F)cn1 (centres unmarked) [Compound 233] as the compound, how does the IC50 read?
Answer: 100 to 500 nM

Question: For NC1Nc2ccc(-c3nccs3)cc2C1(O)c1ccccc1 (centres unmarked) [Compound 105], which IC50 is on record?
Answer: 100 to 500 nM

Question: How did the IC50 turn out when NC1=Nc2ncccc2C1(O)c1ccccc1 (centres unmarked) [Compound 66] was run?
Answer: 5000 to 15000 nM

Question: Which IC50 does the source give for CCCOc1cnc(OC)c(C2(O)C(N)=Nc3ccc(Cl)cc32)c1 (centres unmarked) [Compound 218] here?
Answer: 1 to 100 nM

Question: With NC1=Nc2cc(Cl)ccc2C1(O)c1ccccc1 (centres unmarked) [Compound 34] as the compound, how does the IC50 read?
Answer: 500 to 1000 nM

Question: CCOc1ccc(F)cc1C1(O)C(N)=Nc2ccc(C)cc21 (centres unmarked) [Compound 249] was tested. Which IC50 did it give?
Answer: 1 to 100 nM

Question: For Cn1ccc2cccc(C3(O)C(N)=Nc4ccc(Cl)cc43)c21 (centres unmarked) [Compound 111], which IC50 is on record?
Answer: 1 to 100 nM

Question: With NC1=Nc2ccc(Cl)cc2C1(O)c1ccc(Cl)cc1 (centres unmarked) [Compound 98] as the compound, how does the IC50 read?
Answer: 100 to 500 nM

Question: With COc1cnc(OC)c(C2(O)C(N)=Nc3ccc(C)cc32)c1 (centres unmarked) [Compound 254] as the compound, how does the IC50 read?
Answer: 1 to 100 nM

Question: CC(C)Oc1ccccc1[C@]1(O)C(N)=Nc2ccc(Cl)cc21 [Compound 222] was tested. Which IC50 did it give?
Answer: 1 to 100 nM

Question: With CCCOc1cnc(OC)cc1C1(O)C(N)=Nc2ccc(Cl)cc21 (centres unmarked) [Compound 220] as the compound, how does the IC50 read?
Answer: 1 to 100 nM

Question: With COc1cc2c(cc1OC)C(O)(c1ccccc1)C(N)=N2 (centres unmarked) [Compound 56] as the compound, how does the IC50 read?
Answer: 100 to 500 nM

Question: NC1=Nc2cc(Cl)c(Cl)cc2C1(O)c1ccccc1 (centres unmarked) [Compound 51] was tested. Which IC50 did it give?
Answer: 500 to 1000 nM

Question: With COc1ccc(SC(C)C)c(C2(O)C(N)=Nc3ccc(Cl)cc32)c1 (centres unmarked) [Compound 190] as the compound, how does the IC50 read?
Answer: 1 to 100 nM

Question: Which IC50 does the source give for CN(C)c1cccc(C2(O)C(N)=Nc3ccccc32)c1 (centres unmarked) [Compound 15] here?
Answer: 100 to 500 nM

Question: Which IC50 does the source give for Cc1ccccc1C1(O)C(N)=Nc2ccccc21 (centres unmarked) [Compound 30] here?
Answer: 100 to 500 nM

Question: How did the IC50 turn out when COc1ccc2c(c1)C(O)(c1cc(F)ccc1N1CCOCC1)C(N)=N2 (centres unmarked) [Compound 179] was run?
Answer: 100 to 500 nM

Question: With NC1=Nc2ccc(OCc3ccccc3)cc2C1(O)c1ccccc1 (centres unmarked) [Compound 65] as the compound, how does the IC50 read?
Answer: 5000 to 15000 nM

Question: COc1ccc2c(c1)C(O)(c1cc(Cl)ccc1C1CC1)C(N)=N2 (centres unmarked) [Compound 253] was tested. Which IC50 did it give?
Answer: 1 to 100 nM

Question: With COc1ccc(OC(C)C)c(C2(O)C(N)=Nc3ccc(Cl)cc32)c1 (centres unmarked) [Compound 152] as the compound, how does the IC50 read?
Answer: 1 to 100 nM

Question: NC1=Nc2ccc(Cl)cc2C1(O)c1ccc2c(c1)OCO2 (centres unmarked) [Compound 13] was tested. Which IC50 did it give?
Answer: 100 to 500 nM

Question: For CN(C)c1ncccc1C1(O)C(N)=Nc2ccc(Cl)cc21 (centres unmarked) [Compound 236], which IC50 is on record?
Answer: 100 to 500 nM

Question: With CN1CCN(c2ccccc2C2(O)C(N)=Nc3ccc(Cl)cc32)CC1 (centres unmarked) [Compound 149] as the compound, how does the IC50 read?
Answer: 500 to 1000 nM

Question: CSc1ccc(F)cc1C1(O)C(N)=Nc2ccc(Cl)cc21 (centres unmarked) [Compound 203] was tested. Which IC50 did it give?
Answer: 1 to 100 nM

Question: For Cc1ccc2c(c1)C(O)(c1cccc3ccsc13)C(N)=N2 (centres unmarked) [Compound 143], which IC50 is on record?
Answer: 1 to 100 nM

Question: With NC1=Nc2ccc(Cl)cc2C1(O)c1ccccc1OC1CC1 (centres unmarked) [Compound 216] as the compound, how does the IC50 read?
Answer: 1 to 100 nM

Question: With NC1=Nc2ccc(Cl)cc2C1(O)c1cc(F)ccc1F (centres unmarked) [Compound 198] as the compound, how does the IC50 read?
Answer: 100 to 500 nM

Question: With NC1=Nc2ccc(Cl)cc2C1(O)c1ccccn1 (centres unmarked) [Compound 49] as the compound, how does the IC50 read?
Answer: 1000 to 5000 nM

Question: With Cc1ccc2c(c1)C(O)(c1ccccc1C1CC1)C(N)=N2 (centres unmarked) [Compound 256] as the compound, how does the IC50 read?
Answer: 1 to 100 nM

Question: For Cn1ncc2cc(Cl)cc(C3(O)C(N)=Nc4ccc(Cl)cc43)c21 (centres unmarked) [Compound 258], which IC50 is on record?
Answer: 1 to 100 nM

Question: With CCSc1ccc(F)cc1C1(O)C(N)=Nc2ccc(Cl)cc21 (centres unmarked) [Compound 182] as the compound, how does the IC50 read?
Answer: 1 to 100 nM

Question: With COc1ccc2c(c1)C(O)(c1cc3ccccc3s1)C(N)=N2 (centres unmarked) [Compound 153] as the compound, how does the IC50 read?
Answer: 1 to 100 nM

Question: How did the IC50 turn out when COc1ccc(C2CC2)c(C2(O)C(N)=Nc3ccc(Cl)cc32)c1 (centres unmarked) [Compound 212] was run?
Answer: 1 to 100 nM

Question: Which IC50 does the source give for COc1ccc2c(c1)C(O)(c1ccccc1OC)C(N)=N2 (centres unmarked) [Compound 132] here?
Answer: 100 to 500 nM

Question: COc1ccc2c(c1)C(O)(c1ccccc1N1CCOCC1)C(N)=N2 (centres unmarked) [Compound 167] was tested. Which IC50 did it give?
Answer: 100 to 500 nM
